Measurements as given in PubChem BioAssay AID1963432 (Molecular Pharmacology Branch, DTP, NCI, 2024).

Tested on: SYO-1 complex spheroid growth, percent test/control
Test: Anticancer human tumor SYO-1 cell line growth inhibition [Asc];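 also: compound exposure lasted 7 days after spheroids grew 3 days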;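 as to viability, T/C: 100% = DMSO vehicle control viability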
Conditions: for IC50: curve of first compound; for viability, T/C: stronger effect = lower value
Method in brief: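 Complex spheroids combining tumor cells with HUVEC endothelial cells and human MSCs, at 37 degrees C, 5% CO2; agents tested alone or combined, half-log dilutions from at or near clinical Cmax, or 10 microM if Cmax unknown.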

[1] = second compound 0.0316 µM, first compound 0.0316 µM
[2] = second compound 0.0316 µM, first compound 0.1 µM
[3] = second compound 0.0316 µM, first compound 0.316 µM
[4] = second compound 0.0316 µM, first compound 1 µM
[5] = second compound 0.1 µM, first compound 0.0316 µM
[6] = second compound 0.1 µM, first compound 0.1 µM
[7] = second compound 0.1 µM, first compound 0.316 µM
[8] = second compound 0.1 µM, first compound 1 µM
[9] = second compound 0.316 µM, first compound 0.0316 µM
[10] = second compound 0.316 µM, first compound 0.1 µM
[11] = second compound 0.316 µM, first compound 0.316 µM
[12] = second compound 0.316 µM, first compound 1 µM
[13] = second compound 1 µM, first compound 0.0316 µM
[14] = second compound 1 µM, first compound 0.1 µM
[15] = second compound 1 µM, first compound 0.316 µM
[16] = second compound 1 µM, first compound 1 µM
[17] = second compound 3.16 µM, first compound 0.0316 µM
[18] = second compound 3.16 µM, first compound 0.1 µM
[19] = second compound 3.16 µM, first compound 0.316 µM
[20] = second compound 3.16 µM, first compound 1 µM
[21] = second compound 10 µM, first compound 0.0316 µM
[22] = second compound 10 µM, first compound 0.1 µM
[23] = second compound 10 µM, first compound 0.316 µM
[24] = second compound 10 µM, first compound 1 µM

In the case of C#Cc1c(F)ccc2cc(O)cc(-c3ncc4c(N5CC6CCC(C5)N6)nc(OCC56CCCN5CC(F)C6)nc4c3F)c12 (stereo unspecified) + Cc1c(S(C)(=O)=O)c(-c2cc(F)cc(N3CCN(c4ccc(NS(=O)(=O)c5ccc(NC(CCN6CCC(C(=O)OCCCP(=O)(O)O)CC6)CSc6ccccc6)c(S(=O)(=O)C(F)(F)F)c5)cc4)CC3)c2)c(-c2ccc(Cl)cc2)n1C(C)C, the IC50 (second compound 0.0316 µM) is reported as > 10 µM, the IC50 (second compound 0.1 µM) is reported as > 10 µM and the IC50 (second compound 0.316 µM) is reported as > 10 µM. For the same molecule, the IC50 (second compound 1 µM) was > 10 µM, the IC50 (second compound 3.16 µM) was > 10 µM and the IC50 (second compound 10 µM) was > 10 µM. The viability, T/C [1] was 93.6%, the viability, T/C [2] was 101% and the viability, T/C [3] was 89.2%. The viability, T/C [4] was 99.9%, the viability, T/C (second compound 0.0316 µM, first compound 3.16 µM) was 102% and the viability, T/C (second compound 0.0316 µM, first compound 10 µM) was 99.3%. For the same molecule, the viability, T/C [5] was 92.4%, the viability, T/C [6] was 92.6% and the viability, T/C [7] was 90.6%. The viability, T/C [8] was 99.4%, the viability, T/C (second compound 0.1 µM, first compound 3.16 µM) was 101% and the viability, T/C (second compound 0.1 µM, first compound 10 µM) was 90.8%. The viability, T/C [9] was 93.8%, the viability, T/C [10] was 85.2% and the viability, T/C [11] was 91%. The viability, T/C [12] was 102%, the viability, T/C (second compound 0.316 µM, first compound 3.16 µM) was 99.5% and the viability, T/C (second compound 0.316 µM, first compound 10 µM) was 87%. For the same molecule, the viability, T/C [13] was 92.7%, the viability, T/C [14] was 86.6% and the viability, T/C [15] was 88.2%. For the same molecule, the viability, T/C [16] was 96.9%, the viability, T/C (second compound 1 µM, first compound 3.16 µM) was 96.1% and the viability, T/C (second compound 1 µM, first compound 10 µM) was 87%. For the same molecule, the viability, T/C [17] was 83.9%, the viability, T/C [18] was 84.5% and the viability, T/C [19] was 88.8%. It also gave a viability, T/C [20] of 92.3%, a viability, T/C (second compound 3.16 µM, first compound 3.16 µM) of 85.8% and a viability, T/C (second compound 3.16 µM, first compound 10 µM) of 84.1%. For the same molecule, the viability, T/C [21] was 78.2%, the viability, T/C [22] was 76.9% and the viability, T/C [23] was 81.1%. The viability, T/C [24] was 97.5%, the viability, T/C (second compound 10 µM, first compound 3.16 µM) was 75.8% and the viability, T/C (second compound 10 µM, first compound 10 µM) was 68.3%.
With CNC(C)C(=O)NC1CN(S(=O)(=O)c2cccc(S(=O)(=O)N3CCC4CCC(C(=O)NC(c5ccccc5)c5ccccc5)N4C(=O)C(NC(=O)C(C)NC)C3)c2)CCC2CCC(C(=O)NC(c3ccccc3)c3ccccc3)N2C1=O (stereo unspecified) + Cc1c(S(C)(=O)=O)c(-c2cc(F)cc(N3CCN(c4ccc(NS(=O)(=O)c5ccc(NC(CCN6CCC(C(=O)OCCCP(=O)(O)O)CC6)CSc6ccccc6)c(S(=O)(=O)C(F)(F)F)c5)cc4)CC3)c2)c(-c2ccc(Cl)cc2)n1C(C)C the IC50 (second compound 0.0316 µM) was > 1 µM, the IC50 (second compound 0.1 µM) was > 1 µM and the IC50 (second compound 0.316 µM) was > 1 µM. For the same molecule, the IC50 (second compound 1 µM) was > 1 µM, the IC50 (second compound 3.16 µM) was > 1 µM and the IC50 (second compound 10 µM) was > 1 µM. It also gave a viability, T/C (second compound 0.0316 µM, first compound 0.00316 µM) of 94.8%, a viability, T/C (second compound 0.0316 µM, first compound 0.01 µM) of 97.2% and a viability, T/C [1] of 95.6%. It also gave a viability, T/C [2] of 93.3%, a viability, T/C [3] of 98.4% and a viability, T/C [4] of 103%. For the same molecule, the viability, T/C (second compound 0.1 µM, first compound 0.00316 µM) was 101%, the viability, T/C (second compound 0.1 µM, first compound 0.01 µM) was 99.9% and the viability, T/C [5] was 98.4%. It also gave a viability, T/C [6] of 97.9%, a viability, T/C [7] of 95.7% and a viability, T/C [8] of 92.8%. The viability, T/C (second compound 0.316 µM, first compound 0.00316 µM) was 96.4%, the viability, T/C (second compound 0.316 µM, first compound 0.01 µM) was 91.8% and the viability, T/C [9] was 89%. It also gave a viability, T/C [10] of 99.3%, a viability, T/C [11] of 96.6% and a viability, T/C [12] of 85.8%. It also gave a viability, T/C (second compound 1 µM, first compound 0.00316 µM) of 96.6%, a viability, T/C (second compound 1 µM, first compound 0.01 µM) of 90.8% and a viability, T/C [13] of 89.8%. It also gave a viability, T/C [14] of 90.5%, a viability, T/C [15] of 88.9% and a viability, T/C [16] of 101%. It also gave a viability, T/C (second compound 3.16 µM, first compound 0.00316 µM) of 98.5%, a viability, T/C (second compound 3.16 µM, first compound 0.01 µM) of 88.1% and a viability, T/C [17] of 84.5%. It also gave a viability, T/C [18] of 85.5%, a viability, T/C [19] of 89.9% and a viability, T/C [20] of 82%. It also gave a viability, T/C (second compound 10 µM, first compound 0.00316 µM) of 94.7%, a viability, T/C (second compound 10 µM, first compound 0.01 µM) of 83.9% and a viability, T/C [21] of 74.6%. For the same molecule, the viability, T/C [22] was 72.5%, the viability, T/C [23] was 85.7% and the viability, T/C [24] was 71.1%.
For Cc1nc(N2CCC3(CC2)COC(C)C3N)c(CO)nc1Sc1ccnc(N)c1Cl (stereo unspecified) + Cc1c(S(C)(=O)=O)c(-c2cc(F)cc(N3CCN(c4ccc(NS(=O)(=O)c5ccc(NC(CCN6CCC(C(=O)OCCCP(=O)(O)O)CC6)CSc6ccccc6)c(S(=O)(=O)C(F)(F)F)c5)cc4)CC3)c2)c(-c2ccc(Cl)cc2)n1C(C)C, the IC50 (second compound 0.0316 µM) was > 3 µM, the IC50 (second compound 0.1 µM) was > 3 µM and the IC50 (second compound 0.316 µM) was > 3 µM. The IC50 (second compound 1 µM) was > 3 µM, the IC50 (second compound 3.16 µM) was > 3 µM and the IC50 (second compound 10 µM) was > 3 µM. It also gave a viability, T/C (second compound 0.0316 µM, first compound 0.00949 µM) of 93.6%, a viability, T/C (second compound 0.0316 µM, first compound 0.03 µM) of 99.6% and a viability, T/C (second compound 0.0316 µM, first compound 0.0949 µM) of 91.7%. It also gave a viability, T/C (second compound 0.0316 µM, first compound 0.3 µM) of 98.8%, a viability, T/C (second compound 0.0316 µM, first compound 0.949 µM) of 110% and a viability, T/C (second compound 0.0316 µM, first compound 3 µM) of 102%. For the same molecule, the viability, T/C (second compound 0.1 µM, first compound 0.00949 µM) was 96%, the viability, T/C (second compound 0.1 µM, first compound 0.03 µM) was 94.8% and the viability, T/C (second compound 0.1 µM, first compound 0.0949 µM) was 97.3%. For the same molecule, the viability, T/C (second compound 0.1 µM, first compound 0.3 µM) was 103%, the viability, T/C (second compound 0.1 µM, first compound 0.949 µM) was 100% and the viability, T/C (second compound 0.1 µM, first compound 3 µM) was 93.7%. The viability, T/C (second compound 0.316 µM, first compound 0.00949 µM) was 91.3%, the viability, T/C (second compound 0.316 µM, first compound 0.03 µM) was 88.2% and the viability, T/C (second compound 0.316 µM, first compound 0.0949 µM) was 98.9%. The viability, T/C (second compound 0.316 µM, first compound 0.3 µM) was 97.5%, the viability, T/C (second compound 0.316 µM, first compound 0.949 µM) was 103% and the viability, T/C (second compound 0.316 µM, first compound 3 µM) was 92.3%. It also gave a viability, T/C (second compound 1 µM, first compound 0.00949 µM) of 92.2%, a viability, T/C (second compound 1 µM, first compound 0.03 µM) of 95.7% and a viability, T/C (second compound 1 µM, first compound 0.0949 µM) of 93.2%. It also gave a viability, T/C (second compound 1 µM, first compound 0.3 µM) of 99.9%, a viability, T/C (second compound 1 µM, first compound 0.949 µM) of 98.7% and a viability, T/C (second compound 1 µM, first compound 3 µM) of 91%. It also gave a viability, T/C (second compound 3.16 µM, first compound 0.00949 µM) of 95.3%, a viability, T/C (second compound 3.16 µM, first compound 0.03 µM) of 91.2% and a viability, T/C (second compound 3.16 µM, first compound 0.0949 µM) of 89%. For the same molecule, the viability, T/C (second compound 3.16 µM, first compound 0.3 µM) was 91.4%, the viability, T/C (second compound 3.16 µM, first compound 0.949 µM) was 95.5% and the viability, T/C (second compound 3.16 µM, first compound 3 µM) was 89.3%. It also gave a viability, T/C (second compound 10 µM, first compound 0.00949 µM) of 84%, a viability, T/C (second compound 10 µM, first compound 0.03 µM) of 82.8% and a viability, T/C (second compound 10 µM, first compound 0.0949 µM) of 94.8%. For the same molecule, the viability, T/C (second compound 10 µM, first compound 0.3 µM) was 87.2%, the viability, T/C (second compound 10 µM, first compound 0.949 µM) was 95.8% and the viability, T/C (second compound 10 µM, first compound 3 µM) was 78.5%.
